The values that follow come from paper PMC12040169 (PLOS Biology, 2025).

A short description of the data set: in vitro. As to conditions: human, hela cells, % viability.

On to `OC(CN1CCC(O)(c2cccc(C(F)(F)F)c2)CC1)c1ccccc1` (stereo not shown) [CBK286324], for which the viability (commonly a read-out of living cells in per cent, often relative to untreated cells) at 28.5 h, 10 µM amounted to 109%.

For `Cc1cccc(C2(O)CCN(CC(O)c3ccccc3)CC2)c1` (stereo not shown) [CBK286325], the viability at 28.5 h, 10 µM was determined as 106%.

With `OC(CN1CCC(O)(c2ccc(F)cc2)CC1)c1ccc(-c2ccccc2)cc1` (stereo not shown) [CBK286328], the viability at 28.5 h, 10 µM was 90%.

For the molecule `OC(CN1CCC2(CC1)CC(O)c1cc(F)ccc1O2)c1ccc(-c2ccccc2)cc1` (stereo not shown) [CBK286331], the viability at 28.5 h, 10 µM was found to be 102%.

`Cc1ccccc1C1(O)CCN(CC(O)c2ccc3c(c2)OCCCO3)CC1` (stereo not shown) [CBK286332]: the viability at 28.5 h, 10 µM amounted to 103%.

For the molecule `COc1ccccc1C1(O)CCN(CC(O)c2ccc(C(C)(C)C)cc2)CC1` (stereo not shown) [CBK286335], the viability at 28.5 h, 10 µM is 96.2%.

Regarding `CC(C)(C)c1ccc(C(O)CN2CCC(O)(c3ccc4c(c3)OCO4)CC2)cc1` (stereo not shown) [CBK286336], the viability at 28.5 h, 10 µM was 89.3%.

`CCC(NC(=O)C(c1cccs1)c1cccs1)c1ccc(F)cc1` (stereo not shown) [CBK286339]: the viability at 28.5 h, 10 µM was found to be 93.4%.

In the case of `O=C(NCc1nc(-c2ccccc2)no1)C(c1cccs1)c1cccs1` [CBK286340], the viability at 28.5 h, 10 µM is 109%.

For the molecule `Cc1[nH]c(=O)[nH]c(=O)c1CC(=O)N1Cc2cc(Cl)ccc2OC2(CCOCC2)C1` [CBK286341], the viability at 28.5 h, 10 µM stood at 93%.

For the molecule `COc1ccccc1CN(CCN(C)C)C(=O)Cc1c(C)[nH]c(=O)[nH]c1=O` [CBK286343], the viability at 28.5 h, 10 µM came to 94.2%.

Turning to `Cc1csc(C(Cc2cccs2)NC(=O)Cc2c(C)[nH]c(=O)[nH]c2=O)n1` (stereo not shown) [CBK286345], the viability at 28.5 h, 10 µM is 89.7%.

Regarding `COc1ccc2c(c1)OC1(CCN(CC(O)c3ccc(-c4ccccc4)cc3)CC1)CC2O` (stereo not shown) [CBK286346], the viability at 28.5 h, 10 µM was 91.2%.

Consider `COc1ccccc1-c1ccc(CN2CCC(NC(C)=O)(c3ccc(F)cc3)CC2)cc1` [CBK286349], for which the viability at 28.5 h, 10 µM worked out at 90%.

As to `CC(C)n1c(=O)oc2cc(S(=O)(=O)NC(c3ccccc3)c3ccccc3)ccc21` [CBK286350], the viability at 28.5 h, 10 µM worked out at 91.7%.

For `O=C(N[C@H]1CC[C@H](O)CC1)C1(Cc2cc(-c3ccc(F)cc3F)no2)CCOCC1` [CBK286352], the viability at 28.5 h, 10 µM came to 94.9%.

As for `Cc1ccc(C(Cc2ccsc2)NS(=O)(=O)c2ccc3[nH]c(=O)[nH]c(=O)c3c2)nc1` (stereo not shown) [CBK286354], the viability at 28.5 h, 10 µM worked out at 88.6%.

For the molecule `Cn1c(=O)oc2cc(S(=O)(=O)Nc3cccc(CCc4ccccn4)c3)ccc21` [CBK286357], the viability at 28.5 h, 10 µM amounted to 102%.

Consider `COc1ccc(CN2CCc3cc(OC)c(OC)cc3C2c2ccccc2)cc1CO` (stereo not shown) [CBK286358], for which the viability at 28.5 h, 10 µM was found to be 92.2%.

`COc1cc2c(cc1OC)C(c1ccccc1)N(Cc1ccc(OCCO)cc1)CC2` (stereo not shown) [CBK286359]: the viability at 28.5 h, 10 µM was 80%.

Consider `O=c1[nH]c(=O)c2cc(S(=O)(=O)NCCN3CCc4ccccc43)ccc2[nH]1` [CBK286360], for which the viability at 28.5 h, 10 µM was determined as 91.5%.

As to `Cn1ccc2cc(NS(=O)(=O)c3ccc4[nH]c(=O)[nH]c(=O)c4c3)ccc21` [CBK286364], the viability at 28.5 h, 10 µM came out at 95.4%.

For the molecule `O=C1CCc2cc(S(=O)(=O)Nc3ccc(OCc4ccccc4)cc3)ccc2N1` [CBK286365], the viability at 28.5 h, 10 µM came out at 90%.

Consider `O=C1CCc2cc(S(=O)(=O)NC(c3ccccc3)c3ccccc3)ccc2N1` [CBK286367], for which the viability at 28.5 h, 10 µM is 93.4%.

As to `COc1ccc(-c2ccccc2)cc1NS(=O)(=O)c1ccc2c(c1)CCC(=O)N2` [CBK286368], the viability at 28.5 h, 10 µM was 100%.

Consider `COc1ccc(-c2ccccc2NS(=O)(=O)c2ccc3c(c2)CCC(=O)N3)cc1` [CBK286370], for which the viability at 28.5 h, 10 µM came to 96.8%.

In the case of `O=C1CCc2cc(S(=O)(=O)Nc3cccc(-c4ccc(F)cc4)c3)ccc2N1` [CBK286371], the viability at 28.5 h, 10 µM amounted to 102%.

On to `COc1cccc(-c2ccc(NS(=O)(=O)c3ccc4c(c3)CCC(=O)N4)cc2)c1` [CBK286373], for which the viability at 28.5 h, 10 µM was 87.1%.

In the case of `O=c1[nH]c(=O)c2cc(S(=O)(=O)NC(c3ccccc3)c3ccccc3)ccc2[nH]1` [CBK286375], the viability at 28.5 h, 10 µM was 89.4%.

On to `O=c1[nH]c(=O)c2cc(S(=O)(=O)Nc3ccccc3Cc3ccccc3)ccc2[nH]1` [CBK286377], for which the viability at 28.5 h, 10 µM was determined as 94.3%.

Consider `O=c1[nH]c(=O)c2cc(S(=O)(=O)NC3(c4ccccc4)CCCC3)ccc2[nH]1` [CBK286378], for which the viability at 28.5 h, 10 µM amounted to 110%.

For the molecule `O=c1[nH]c(=O)c2cc(S(=O)(=O)NC3CCN(Cc4ccccc4)C3)ccc2[nH]1` (stereo not shown) [CBK286380], the viability at 28.5 h, 10 µM amounted to 109%.

Take `CN(C)C(CNS(=O)(=O)c1ccc2[nH]c(=O)[nH]c(=O)c2c1)c1ccccc1Cl` (stereo not shown) [CBK286385]: the viability at 28.5 h, 10 µM came to 86.7%.

Consider `CCCC1c2cccn2CCN1S(=O)(=O)c1ccc2[nH]c(=O)[nH]c(=O)c2c1` (stereo not shown) [CBK286388], for which the viability at 28.5 h, 10 µM is 101%.

Consider `O=c1[nH]c(=O)c2cc(S(=O)(=O)NCC3(N4CCOCC4)CCCCC3)ccc2[nH]1` [CBK286390], for which the viability at 28.5 h, 10 µM was 105%.

Turning to `O=c1[nH]c(=O)c2cc(S(=O)(=O)N3CCCC(CN4CCCC4)C3)ccc2[nH]1` (stereo not shown) [CBK286392], the viability at 28.5 h, 10 µM came out at 88.8%.

For the molecule `O=c1[nH]c(=O)c2cc(S(=O)(=O)N3CCCCC3CN3CCCCC3)ccc2[nH]1` (stereo not shown) [CBK286393], the viability at 28.5 h, 10 µM is 83.5%.

For `O=c1[nH]c(=O)c2cc(S(=O)(=O)Nc3cccc(-c4ccc(F)cc4)c3)ccc2[nH]1` [CBK286394], the viability at 28.5 h, 10 µM was 84.2%.

On to `O=c1[nH]c(=O)c2cc(S(=O)(=O)NCc3ccccc3CN3CCCC3)ccc2[nH]1` [CBK286395], for which the viability at 28.5 h, 10 µM stood at 108%.

For the molecule `COc1cc2c(cc1CNS(=O)(=O)c1ccc3[nH]c(=O)[nH]c(=O)c3c1)CCC2` [CBK286396], the viability at 28.5 h, 10 µM was 98.7%.

Turning to `O=c1[nH]c(=O)c2cc(S(=O)(=O)Nc3cccc(CCc4ccncc4)c3)ccc2[nH]1` [CBK286397], the viability at 28.5 h, 10 µM is 103%.

For the molecule `COc1ccc2c(c1)C(O)CC1(CCN(CC(O)c3ccc(-c4ccccc4)cc3)CC1)O2` (stereo not shown) [CBK286398], the viability at 28.5 h, 10 µM is 101%.

Regarding `Cc1cc2c(cc1C)C(O)CC1(CCN(CC(=O)NC3CCCCC3)CC1)O2` (stereo not shown) [CBK286399], the viability at 28.5 h, 10 µM came to 94%.

In the case of `C[C@]12CN(Cc3cccc(C#Cc4ccccc4)c3)C[C@H]1C(=O)Nc1ccccc1C(=O)N2` [CBK286403], the viability at 28.5 h, 10 µM stood at 94.9%.

`Cc1cc(C2CCCCCN2S(=O)(=O)c2ccc3[nH]c(=O)[nH]c(=O)c3c2)no1` (stereo not shown) [CBK286404]: the viability at 28.5 h, 10 µM came to 94.2%.

As for `Cn1cc(Cl)c(C2CCCCCN2S(=O)(=O)c2ccc3[nH]c(=O)[nH]c(=O)c3c2)n1` (stereo not shown) [CBK286408], the viability at 28.5 h, 10 µM was 89.3%.

`O=C(c1ccc2c(c1)N(Cc1ccc(F)cc1)C(=O)CO2)c1cccs1` [CBK286410]: the viability at 28.5 h, 10 µM worked out at 92.3%.

Consider `O=C(c1ccc2c(c1)N(Cc1ccccc1Cl)C(=O)CO2)c1cccs1` [CBK286411], for which the viability at 28.5 h, 10 µM stood at 94.2%.

With `COc1cccc(CN2C(=O)COc3ccc(C(=O)c4cccs4)cc32)c1` [CBK286412], the viability at 28.5 h, 10 µM turned out to be 96.1%.

Take `c1ccc(C(Nc2ncc(-c3cnccn3)c(-c3ccco3)n2)c2ccccc2)cc1` [CBK286413]: the viability at 28.5 h, 10 µM stood at 90%.

Take `COc1ccc(F)cc1-c1ccccc1CC1(C(=O)NCc2cccs2)CCOCC1` [CBK286416]: the viability at 28.5 h, 10 µM worked out at 93.7%.

Consider `Cc1ccc(-c2ccccc2CC2(C(=O)O)CCN(Cc3ccccc3F)CC2)c(C)c1` [CBK286418], for which the viability at 28.5 h, 10 µM turned out to be 96.7%.

On to `COc1cccc(CN2CCC(Cc3ccccc3-c3ccc(C)cc3C)(C(=O)O)CC2)c1` [CBK286420], for which the viability at 28.5 h, 10 µM turned out to be 95.5%.

On to `COc1ccc(CN2CCC(Cc3ccccc3-c3ccc(C)cc3C)(C(=O)O)CC2)cc1` [CBK286421], for which the viability at 28.5 h, 10 µM was found to be 88.5%.

`Cc1ccc(-c2ccccc2CC2(C(=O)Nc3ccc(C(N)=O)cc3)CCOCC2)c(C)c1` [CBK286422]: the viability at 28.5 h, 10 µM was 95.9%.

Regarding `Cc1ccc(-c2ccccc2CC2(C(=O)Nc3cccc(C(N)=O)c3)CCOCC2)c(C)c1` [CBK286423], the viability at 28.5 h, 10 µM was 92.7%.

Take `COc1ccc(F)cc1-c1ccccc1CC1(C(=O)NCCc2ccccc2)CCOCC1` [CBK286424]: the viability at 28.5 h, 10 µM was 97.5%.

In the case of `COc1ccccc1-c1ccccc1CC1(C(=O)NCc2ccc(F)cc2)CCOCC1` [CBK286425], the viability at 28.5 h, 10 µM was found to be 90%.

For `COc1ccccc1-c1ccccc1CC1(C(=O)NCc2cccc(F)c2)CCOCC1` [CBK286426], the viability at 28.5 h, 10 µM is 96.9%.

For the molecule `COc1ccc(-c2ccccc2CC2(C(=O)NCc3cccs3)CCOCC2)cc1` [CBK286429], the viability at 28.5 h, 10 µM was determined as 92.3%.

As to `Cc1ccc(CO)cc1NC(=O)[C@@H]1CN(Cc2ccccc2)C[C@H]1C(=O)c1ccc(F)cc1` [CBK286431], the viability at 28.5 h, 10 µM was 105%.

Turning to `CC(=O)N1CCc2sccc2C1c1ccc(NC(=O)c2ccccc2F)cc1` (stereo not shown) [CBK286433], the viability at 28.5 h, 10 µM was 84.2%.

`CC(=O)N1CCc2sccc2C1c1ccccc1NC(=O)c1ccco1` (stereo not shown) [CBK286436]: the viability at 28.5 h, 10 µM was 98.1%.

`OC(CN1CCC(O)(Cn2cnc3ccccc32)CC1)c1ccc(-c2ccccc2)cc1` (stereo not shown) [CBK286437]: the viability at 28.5 h, 10 µM is 89%.

Consider `CC1Cc2cc(C(O)CN3CCCC3)ccc2N1C(=O)C1CC1` (stereo not shown) [CBK286440], for which the viability at 28.5 h, 10 µM was determined as 94.9%.

For the molecule `CC(=O)N1CCc2sccc2C1c1ccc(NCc2ccc(F)cc2)cc1` (stereo not shown) [CBK286442], the viability at 28.5 h, 10 µM was found to be 90.3%.

Take `COc1ccc(CNc2ccc(C3c4ccsc4CCN3C(C)=O)cc2)cc1` (stereo not shown) [CBK286444]: the viability at 28.5 h, 10 µM was 102%.

As to `COCC(=O)N1CCc2sccc2C1c1ccc(NCc2ccccc2F)cc1` (stereo not shown) [CBK286446], the viability at 28.5 h, 10 µM came to 96.6%.

Regarding `O=C(NCc1cccs1)c1ccc2c(=O)n3c(nc2c1)CCN(Cc1ccccc1)CC3` [CBK286448], the viability at 28.5 h, 10 µM stood at 100%.

Take `Cc1nn(-c2ccccc2)c2nc(O)c(CNC(c3ccccc3)c3ccco3)cc12` (stereo not shown) [CBK286449]: the viability at 28.5 h, 10 µM was determined as 83.8%.

For `CC(=O)N1CCc2sccc2C1c1ccc(NCc2ccc(F)c(F)c2)cc1` (stereo not shown) [CBK286452], the viability at 28.5 h, 10 µM worked out at 101%.

Consider `COCC(=O)N1CCc2sccc2C1c1ccc(NCc2cccc(OC)c2)cc1` (stereo not shown) [CBK286454], for which the viability at 28.5 h, 10 µM turned out to be 92.9%.

In the case of `CC(=O)N1CCc2sccc2C1c1ccc(NCc2ccc(F)cc2F)cc1` (stereo not shown) [CBK286455], the viability at 28.5 h, 10 µM amounted to 93.8%.
